The assay addresses T1, Human M4 (Homo sapiens, UniProt P08173).
T1 construct: Human or rat M4 cDNA, along with the chimeric G protein Gqi5, were transfected into Chinese hamster ovary (CHO-K1) cells; expressed in transfected cells; host or cells: CHO-K1 (Chinese hamster ovary, ATCC), stably co-expressing Gqi5
T1 sequence (P08173 1-479): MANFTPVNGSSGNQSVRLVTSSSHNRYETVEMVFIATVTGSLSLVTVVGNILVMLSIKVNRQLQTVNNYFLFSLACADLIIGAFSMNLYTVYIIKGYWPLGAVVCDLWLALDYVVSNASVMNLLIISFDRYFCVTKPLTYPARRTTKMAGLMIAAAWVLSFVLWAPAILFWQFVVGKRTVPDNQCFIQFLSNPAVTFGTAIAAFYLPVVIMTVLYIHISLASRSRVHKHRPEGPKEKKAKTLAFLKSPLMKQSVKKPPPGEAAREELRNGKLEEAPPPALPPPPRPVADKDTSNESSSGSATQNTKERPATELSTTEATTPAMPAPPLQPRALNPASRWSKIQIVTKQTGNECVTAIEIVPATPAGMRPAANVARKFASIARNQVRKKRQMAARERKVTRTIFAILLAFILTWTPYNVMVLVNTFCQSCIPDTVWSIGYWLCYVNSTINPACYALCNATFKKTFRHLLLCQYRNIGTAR
Briefly: mAChR M4 cell-based functional assay (calcium flux, decrease of EC80 acetylcholine response). Conditions: for remaining activity at 30 µM: read-out: Human M4 Emin; for IC50: M4/Gqi5/CHO-K1 cells, decrease of response to EC80 acetylcholine. How it is done:
Human or rat M4 cDNA, along with the chimeric G protein Gqi5, were transfected into Chinese hamster ovary (CHO-K1) cells purchased from the American Type Culture Collection using Lipofectamine2000. M4/Gqi5/CHO cells were grown in Ham's F-12 medium containing 10% heat-inactivated fetal bovine serum (FBS), 20 mM HEPES, 500 μg/mL G418 sulfate, and 200 μg/mL Hygromycin B.
For high throughput measurement of agonist-evoked increases in intracellular calcium, CHO-K1 cells stably expressing muscarinic receptors were plated in growth medium lacking G418 and hygromycin at 15,000 cells/20 μL/well in Greiner 384-well black-walled, tissue culture (TC)-treated, clear-bottom plates (VWR). Cells were incubated overnight at 37° C. and 5% CO2. The next day, cells were washed using an ELX 405 (BioTek) with assay buffer; the final volume was then aspirated to 20 μL. Next, 20 μL of a 2.3 μM stock of Fluo-4/acetoxymethyl ester (Invitrogen, Carlsbad, Calif.), prepared as a 2.3 mM stock in DMSO and mixed in a 1:1 ratio with 10% (w/v) Pluronic F-127 and diluted in assay buffer, was added to the wells and the cell plates were incubated for 50 min at 37° C. and 5% CO2. Dye was removed by washing with the ELX 405 and the final volume was aspirated to 20 μL. Compound master plates were formatted in a 10 point concentration-response curve (CRC) format (1:3 dilutions) in 100% DMSO with a starting concentration of 10 or 1 mM using a BRAVO liquid handler (Agilent). Test compound CRCs were then transferred to daughter plates (240 nL) using the Echo acoustic plate reformatter (Labcyte, Sunnyvale, Calif.) and then diluted into assay buffer (40 μL) to a 2×stock using a Thermo Fisher Combi (Thermo Fisher Scientific, Waltham, Mass.).
Calcium flux was measured using the Functional Drug Screening System (FDSS) 6000 or 7000 (Hamamatsu Corporation, Tokyo, Japan) as an increase in the fluorescent static ratio. Compounds were applied to cells (20 μL, 2×) using the automated system of the FDSS at 2 seconds into the protocol and the data were collected at 1 Hz. At 143 s, 10 μL of an EC20 concentration of the muscarinic receptor agonist acetylcholine was added (5×), followed by the addition of 12 μL of an EC80 concentration of acetylcholine at the 268 s time point (5×). Agonist activity was analyzed as a concentration-dependent increase in calcium mobilization upon compound addition. Positive allosteric modulator activity was analyzed as a concentration-dependent increase in the EC20 acetylcholine response. Antagonist activity was analyzed as a concentration-dependent decrease in the EC80 acetylcholine response; for the purposes of the tables herein, an IC50 (inhibitory concentration 50) was calculated as a concentration-dependent decrease of the response elicited by an EC80 concentration of acetylcholine. Concentration-response curves were generated using a four-parameter logistical equation in XLFit curve fitting software (IDBS, Bridgewater, N.J.) for Excel (Microsoft, Redmond, Wash.) or Prism (GraphPad Software, Inc., San Diego, Calif.) or the Dotmatics software platform (Dotmatics, Bishop's Stortford, UK).
Compounds were synthesized as described above. Activity (IC50 and Emin) was determined in the mAChR M4 cell-based functional assay as described above and the data are shown in Table 2.
A general note: Calcium flux is commonly read through the fluorescence of an indicator in the cells.

Read-outs that look alike come from different tables or passages of the source.

What is called IC50 is the point on the concentration scale where inhibition reaches its midpoint. For `Cn1cc2cc(-c3cc(C(F)(F)F)c(N[C@H]4C[C@@H]5CN(CC6CCCOC6)C[C@@H]5C4)nn3)ccc2n1` (single isomer, unassigned) [Example 36], the half-inhibitory concentration (IC50) amounted to 99.7 nM. The remaining activity at 30 µM (% ACh maximum at 30 μM) is 4%. For the molecule `Cn1cc2cc(-c3cc(C(F)(F)F)c(N[C@H]4C[C@@H]5CN(CC6CCCOC6)C[C@@H]5C4)nn3)ccc2n1` (single isomer, unassigned) [Example 37], the half-maximal inhibitory concentration (IC50) came to 76.1 nM. Moreover, the “Human M4 Emin” value (% ACh maximum at 30 μM) amounted to 5%.

As to `Cc1ccc(F)cc1-c1cc(C(F)(F)F)c(N[C@H]2C[C@@H]3CN(CC4CCCCO4)C[C@@H]3C2)nn1` (single isomer, unassigned) [Example 118], the half-maximal inhibitory concentration (IC50) was 12.5 nM. The remaining activity at 30 µM (% ACh maximum at 30 μM) was 3%. `Cc1ccc(F)cc1-c1cc(C(F)(F)F)c(N[C@H]2C[C@@H]3CN(CC4CCCCO4)C[C@@H]3C2)nn1` (single isomer, unassigned) [Example 119]: the IC50 is 14 nM. For the same molecule, where the note is “% ACh maximum at 30 μM”, the “Human M4 Emin” value was determined as 3%. On to `Cc1ccc(F)cc1-c1cc(C(F)(F)F)c(N[C@H]2C[C@@H]3CN(CC4CCCOC4)C[C@@H]3C2)nn1` (single isomer, unassigned) [Example 120], for which the IC50 stood at 10.3 nM. Besides, the remaining activity at 30 µM (% ACh maximum at 30 μM) is 3%. Take `Cc1ccc(F)cc1-c1cc(C(F)(F)F)c(N[C@H]2C[C@@H]3CN(CC4CCCOC4)C[C@@H]3C2)nn1` (single isomer, unassigned) [Example 121]: the IC50 worked out at 10.1 nM. In addition, the “Human M4 Emin” value (% ACh maximum at 30 μM) turned out to be 3%. For the molecule `Cn1cc2cc(-c3cc(C#N)c(N[C@H]4C[C@@H]5CN(CC6CCCOC6)C[C@@H]5C4)nn3)ccc2n1` (single isomer, unassigned) [Example 158], the half-maximal inhibitory concentration (IC50) turned out to be 15.7 nM. In addition, the remaining activity at 30 µM (% ACh maximum at 30 μM) was found to be 14%. With `Cn1cc2cc(-c3cc(C#N)c(N[C@H]4C[C@@H]5CN(CC6CCCOC6)C[C@@H]5C4)nn3)ccc2n1` (single isomer, unassigned) [Example 159], the half-inhibitory concentration (IC50) came out at 11.5 nM. For the same molecule, the “Human M4 Emin” value (% ACh maximum at 30 μM) is reported as 10%. In the same order, the values of `Cn1cc2cc(-c3nnc(N[C@H]4C[C@@H]5CN(CC6CCOCC6)C[C@@H]5C4)cc3C(F)(F)F)ccc2n1` [Example 1, (3aR,5s,6aS)—N-(6-(2-Methyl-2H-indazol-5-yl)-5-(trifluoromethyl)pyridazin-3-yl)-2-((tetrahydro-2H-pyran-4-yl)methyl)octahydrocyclopenta[c]pyrrol-5-amine] are 5.63 nM and 2%.

For the molecule `Cc1ccc(F)cc1-c1cc(C(F)(F)F)c(O[C@H]2C[C@@H]3CN(CC4CCOCC4)C[C@@H]3C2)nn1` [Example 5, (3aR,5s,6aS)-5-((6-(5-fluoro-2-methylphenyl)-4-(trifluoromethyl)pyridazin-3-yl)oxy)-2-((tetrahydro-2H-pyran-4-yl)methyl)octahydrocyclopenta[c]pyrrole], the 50% inhibitory concentration (IC50) worked out at 1240 nM. Also, where the note is “% ACh maximum at 30 μM”, the “Human M4 Emin” value turned out to be 7%. In the same order, the values of `C[C@H]1CCCN(c2cc(C(F)(F)F)c(N[C@H]3C[C@@H]4CN(CC5CCOCC5)C[C@@H]4C3)nn2)C1` [Example 6, (3aR,5s,6aS)—N-(6-((S)-3-methylpiperidin-1-yl)-4-(trifluoromethyl)pyridazin-3-yl)-2-((tetrahydro-2H-pyran-4-yl)methyl)octahydrocyclopenta[c]pyrrol-5-amine] are 1220 nM and 4%. In the case of `Cc1c(-c2nnc(N(C)[C@H]3C[C@@H]4CN(CC5CCOCC5)C[C@@H]4C3)cc2C(F)(F)F)ccc2nn(C)cc12` [Example 7, (3aR,5s,6aS)—N-(6-(2,4-dimethyl-2H-indazol-5-yl)-5-(trifluoromethyl)pyridazin-3-yl)-N-(methyl-d3)-2-((tetrahydro-2H-pyran-4-yl)methyl)octahydrocyclopenta [c]pyrrol-5-amine], the 50% inhibitory concentration (IC50) amounted to 3670 nM. Regarding `[2H]C([2H])([2H])N(c1cc(C(F)(F)F)c(-c2ccc3nn(C)cc3c2C)nn1)[C@H]1C[C@@H]2CN(CC3CCOCC3)C[C@@H]2C1` [Example 7, (3aR,5s,6aS)—N-(6-(2,4-dimethyl-2H-indazol-5-yl)-5-(trifluoromethyl)pyridazin-3-yl)-N-(methyl-d3)-2-((tetrahydro-2H-pyran-4-yl)methyl)octahydrocyclopenta [c]pyrrol-5-amine], the “Human M4 Emin” value (% ACh maximum at 30 μM) was found to be 15%.

`Cc1cc(CN2C[C@H]3C[C@H](Nc4ncc(-c5cc(F)ccc5Cl)cn4)C[C@H]3C2)ccc1F` [Example 9, (3aR,5s,6aS)-N-(5-(2-chloro-5-fluorophenyl)pyrimidin-2-yl)-2-(4-fluoro-3-methylbenzyl)octahydro-cyclopenta[c]pyrrol-5-amine]: the IC50 is over 10000 nM. For the same molecule, the remaining activity at 30 µM (% ACh maximum at 30 μM) is 27%.

In the case of `Fc1ccc(Cl)c(-c2nnc(N[C@H]3C[C@@H]4CN(CC5CCOCC5)C[C@@H]4C3)cc2C(F)(F)F)c1` [Example 10, (3aR,5s,6aS)-N-(6-(2-chloro-5-fluorophenyl)-5-(trifluoro-methyl)pyridazin-3-yl)-2-((tetrahydro-2H-pyran-4-yl)methyl)octahydro-cyclopenta[c]pyrrol-5-amine], the IC50 worked out at 2.06 nM. Also, the remaining activity at 30 µM (% ACh maximum at 30 μM) was 3%. For the molecule `Cn1cc2cc(-c3cnc(N[C@H]4C[C@@H]5CN(CC6CCOCC6)C[C@@H]5C4)nc3)ccc2n1` [Example 12, (3aR,5s,6aS)-N-(5-(2-methyl-2H-indazol-5-yl)pyrimidin-2-yl)-2-((tetrahydro-2H-pyran-4-yl)methyl)octahydro-cyclopenta[c]pyrrol-5-amine], the IC50 is 2750 nM and the remaining activity at 30 µM was 10%. As to `Cn1cc2cc(-c3cnc(N[C@H]4C[C@@H]5CN(Cc6ccc7c(c6)OCO7)C[C@@H]5C4)nc3)ccc2n1` [Example 13, (3aR,5s,6aS)-2-(benzo[d][1,3]dioxol-5-ylmethyl)-N-(5-(2-methyl-2H-indazol-5-yl)pyrimidin-2-yl)octahydro-cyclopenta[c]pyrrol-5-amine], the IC50 came out at 5290 nM. Also, under “% ACh maximum at 30 μM”, the remaining activity at 30 µM stood at 10%. In the case of `Cn1cc2cc(-c3cnc(N[C@H]4C[C@@H]5CN(CCC(C)(C)C)C[C@@H]5C4)nc3)ccc2n1` [Example 14, (3aR,5s,6aS)-2-(3,3-dimethyl-butyl)-N-(5-(2-methyl-2H-indazol-5-yl)pyrimidin-2-yl)octahydro-cyclopenta[c]pyrrol-5-amine], the IC50 is 394 nM. For the same molecule, the remaining activity at 30 µM (% ACh maximum at 30 μM) was found to be 4%. The matching figures for `CC(C)(C)CCN1C[C@H]2C[C@H](Nc3ncc(-c4cc(F)ccc4Cl)cn3)C[C@H]2C1` [Example 15, (3aR,5s,6aS)-N-(5-(2-chloro-5-fluorophenyl)pyrimidin-2-yl)-2-(3,3-dimethylbutyl)octahydro-cyclopenta[c]pyrrol-5-amine]: 3330 nM and 3%.

Source of the values: US20230183219A1, “CONDENSED SUBSTITUTED HYDROPYRROLES AS ANTAGONISTS OF THE MUSCARINIC ACETYLCHOLINE RECEPTOR M4” (Vanderbilt University, priority 2020, published 2023).
